Experimental data as given in US20250171434A1, “SEC61 INHIBITORS AND USE THEREOF” (KEZAR LIFE SCIENCES, INC., priority 2022, published 2025).

Columns and labels:
[1] = Liver Microsome Stability Assay, monkey; assay type: in vitro ADME; conditions: monkey liver microsomes 1.0 mg/mL, 1.0 uM compound, 37° C., 1 mM NADPH
Method in brief: (§1)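 Each species' liver microsomes at 1.0 mg/mL received 1.0 uM compound in 0.1 M potassium phosphate with 0.4% DMSO. Reactions proceeded at 37° C in the presence or absence of 1 mM NADPH. Quenching followed at 0 and 30 minutes.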

CD47(ss + 10)Gluc = assay: Dox-Induced CD47-ss-Gluc Assay; assay type: cell-based; conditions: Flp-In 293 T-REx cells, 24 hours with doxycycline; Table 1; read-out: 24 hr Dox Inducible CD47(ss + 10)Gluc 293FRT/TO: Mean IC50
[2] = tested on: multiple myeloma cell line NCI-H929; assay: H929 Cell Viability Assay; assay type: cell-based, human; conditions: Homo sapiens; NCI-H929 cells, 48 hours, Celltiter-Glo; read-out: 48 hr H929 Viability Celltiter-Glo: Mean EC50
Method in brief: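 Cells in RPMI 1640/10% FBS; compound dilutions in DMSO/media; 48 h, 37° C, 5% CO2; CellTiter-Glo luciferase readout for viability.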

[3] = tested on: multiple myeloma cell line U266B1; assay: U266 Cell Viability Assay; assay type: cell-based; conditions: Homo sapiens, U-266; U266B1 cells, 48 hours, Celltiter-Glo; read-out: 48 hr U266 Viability Celltiter-Glo: Mean EC50
Method in brief: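 Luminescent ATP read-out (CellTiter-Glo) after 48 h compound exposure at 37° C., 5% CO2; cells maintained in RPMI 1640/10% FBS/2 mM glutamine/pen-strep, compounds diluted in DMSO/media.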

[4] = tested on: IL6R-ss+10aa/Gaussia Luciferase; assay: Dox-induced IL-6R-ss-Gluc Assay; assay type: cell-based; conditions: Table 1; for IC50: Flp-In 293 T-REx cells, 24 hours with doxycycline, read-out: 24hr Dox Inducible IL6R(ss + 10)Gluc 293FRT/TO: Mean IC50; for 24hr Dox Inducible IL6R(ss + 10)Gluc 293FRT/TO: IL6R/PD1: ratio of IC50s IL6R/PD1
Method in brief: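 Flp-In 293 T-REx cells stably carrying a doxycycline-inducible IL6R signal sequence+10 aa fused to Gaussia luciferase. Cells plated the day before; compound dilutions added in DMSO/media containing doxycycline and incubated at 37 °C, 5% CO2.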

[5] = Liver Microsome Stability Assay, rat; assay type: in vitro ADME; conditions: rat liver microsomes 1.0 mg/mL, 1.0 uM compound, 37° C., 1 mM NADPH
Method in brief: as §1

[6] = tested on: PD1-ss+10aa/Gaussia Luciferase; assay: Dox-Induced PD1-ss-Gluc Assay; assay type: cell-based; conditions: Flp-In 293 T-REx cells, 24 hours with doxycycline; Table 1; read-out: 24 hr Dox Inducible PD1ssGluc 293FRT/TO: Mean IC50
Method in brief: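 Gaussia luciferase fused downstream of the PD1 signal peptide plus 10 residues was expressed on doxycycline induction in stably transfected Flp-In 293 T-REx cells. Compounds were added with doxycycline and incubated at 37 °C, 5% CO2.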

[7] = Liver Microsome Stability Assay, mouse; assay type: in vitro ADME; conditions: mouse liver microsomes 1.0 mg/mL, 1.0 uM compound, 37° C., 1 mM NADPH
Method in brief: as §1

[8] = tested on: IL-2-FL/Gaussia Luciferase; assay: Dox Inducible IL2-FL-Gluc Assay; assay type: cell-based; conditions: Table 1; for IC50: read-out: 24 hr Dox Inducible IL2FLGluc 293FRT/TO: Mean IC50; for 24 hr Dox Inducible IL2FLGluc 293FRT/TO: IL2/PD1: ratio of IC50s IL2/PD1
Method in brief: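 Stable Flp-In 293 T-REx line, Tet-regulated IL-2 (aa 1-153)–Gaussia luciferase fusion; hygromycin/blasticidin selected. Plated day -1; compound + doxycycline added next day; 37° C, 5% CO2.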

[9] = Liver Microsome Stability Assay, human; assay type: in vitro ADME; conditions: human liver microsomes 1.0 mg/mL, 1.0 uM compound, 37° C., 1 mM NADPH
Method in brief: as §1

[10] = Flp-In 293 T-REx cells, 24 hours with doxycycline

Compound	Liver Microsome Stability (Multiple Species): Monkey - % Remaining after 30 min w/ NADPH (%) [1]	IC50 (CD47(ss + 10)Gluc)	EC50 [2]	EC50 [3]	IC50 [4]	Liver Microsome Stability (Multiple Species): Rat - % Remaining after 30 min w/ NADPH (%) [5]	IC50 [6]	Liver Microsome Stability (Multiple Species): Mouse - % Remaining after 30 min w/ NADPH (%) [7]	IC50 [8, 10]	Liver Microsome Stability (Multiple Species): Human - % Remaining after 30 min w/ NADPH (%) [9]	24 hr Dox Inducible IL2FLGluc 293FRT/TO: Mean IC50 (nM) [8, 10]	24hr Dox Inducible IL6R(ss + 10)Gluc 293FRT/TO: IL6R/PD1 [4]	24 hr Dox Inducible IL2FLGluc 293FRT/TO: IL2/PD1 [8]
O=C(Nc1nc(/C=C/c2ncn(C3CC3)c2Cl)cs1)c1cc(SC(F)(F)F)cn1Cc1ccnc(F)c1 [Compound A31, (E)-N-(4-(2-(5-chloro-1-cyclopropyl-1H-imidazol-4-yl)vinyl)thiazol-2-yl)-1-((2-fluoropyridin-4-yl)methyl)-4-((trifluoromethyl)thio)-1H-pyrrole-2-carboxamide]	25%	2.21 µM	22.7 µM	> 25 µM	1.26 µM	65%	0.004 µM	82%	> 25 µM	10%	–	317	>6300
O=C(Nc1nc(/C=C/c2ncn(C3CC3)c2Cl)cs1)c1cc(SC(F)F)cn1Cc1ccnc(F)c1 [Compound A32, (E)-N-(4-(2-(5-chloro-1-cyclopropyl-1H-imidazol-4-yl)vinyl)thiazol-2-yl)-4-((difluoromethyl)thio)-1-((2-fluoropyridin-4-yl)methyl)-1H-pyrrole-2-carboxamide]	2%	3.06 µM	> 25 µM	> 25 µM	1.94 µM	5%	0.01 µM	27%	–	1%	I.A	187	>2400
CN[C@H]1CC[C@@H](/C=C/c2csc(NC(=O)c3cccn3Cc3ccncc3)n2)CC1 [Compound B11, N-(4-((E)-2-((1s,4s)-4-(methylamino)cyclohexyl)vinyl)thiazol-2-yl)-1-(pyridin-4-ylmethyl)-1H-pyrrole-2-carboxamide]	3%	> 25 µM	24.7 µM	> 25 µM	> 25 µM	32%	18.7 µM	54%	14.1 µM	1%	–	>1.3	0.8
CN[C@H]1CC[C@H](/C=C/c2csc(NC(=O)c3cccn3Cc3ccncc3)n2)CC1 [Compound B12, N-(4-((E)-2-((1r,4r)-4-(methylamino)cyclohexyl)vinyl)thiazol-2-yl)-1-(pyridin-4-ylmethyl)-1H-pyrrole-2-carboxamide]	<1%	15.6 µM	> 25 µM	> 25 µM	> 25 µM	12%	17.1 µM	57%	7.13 µM	<1%	–	>1.5	0.4
N#Cc1ccc(/C=C/c2csc(NC(=O)c3cccn3Cc3ccnc(F)c3)n2)nc1 [Compound B13, (E)-N-(4-(2-(5-cyanopyridin-2-yl)vinyl)thiazol-2-yl)-1-((2-fluoropyridin-4-yl)methyl)-1H-pyrrole-2-carboxamide]	<1%	> 25 µM	> 25 µM	> 25 µM	> 25 µM	<1%	0.05 µM	4%	> 25 µM	<1%	–	>500	>500
Cc1nc(/C=C/c2csc(NC(=O)c3cccn3Cc3ccnc(F)c3)n2)ccc1C#N [Compound B14, (E)-N-(4-(2-(5-cyano-6-methylpyridin-2-yl)vinyl)thiazol-2-yl)-1-((2-fluoropyridin-4-yl)methyl)-1H-pyrrole-2-carboxamide]	<1%	> 25 µM	> 25 µM	> 25 µM	> 25 µM	<1%	1.1 µM	0.2%	> 25 µM	<1%	–	>23	>23

The next lines start with results.

Liver Microsome Stability (Multiple Species): Monkey - % Remaining after 30 min w/ NADPH (%) [1]	IC50 (CD47(ss + 10)Gluc)	EC50 [2]	EC50 [3]	IC50 [4]	Liver Microsome Stability (Multiple Species): Rat - % Remaining after 30 min w/ NADPH (%) [5]	IC50 [6]	Liver Microsome Stability (Multiple Species): Mouse - % Remaining after 30 min w/ NADPH (%) [7]	IC50 [8, 10]	Liver Microsome Stability (Multiple Species): Human - % Remaining after 30 min w/ NADPH (%) [9]	24 hr Dox Inducible IL2FLGluc 293FRT/TO: Mean IC50 (nM) [8, 10]	Compound	24hr Dox Inducible IL6R(ss + 10)Gluc 293FRT/TO: IL6R/PD1 [4]	24 hr Dox Inducible IL2FLGluc 293FRT/TO: IL2/PD1 [8]
<1%	> 25 µM	> 25 µM	> 25 µM	> 25 µM	1%	11.9 µM	2%	> 25 µM	<1%	–	CC(=O)N[C@H]1CC[C@@H](/C=C/c2csc(NC(=O)c3cccn3Cc3ccncc3)n2)CC1 [Compound B15, N-(4-((E)-2-((1s,4s)-4-acetamidocyclohexyl)vinyl)thiazol-2-yl)-1-(pyridin-4-ylmethyl)-1H-pyrrole-2-carboxamide]	>2	>2.1
2%	7.07 µM	19.3 µM	21.3 µM	8.77 µM	47%	8.11 µM	79%	19.5 µM	1%	–	N[C@H]1CC[C@@H](/C=C/c2csc(NC(=O)c3cccn3Cc3ccncc3)n2)CC1 [Compound B16, N-(4-((E)-2-((1s,4s)-4-aminocyclohexyl)vinyl)thiazol-2-yl)-1-(pyridin-4-ylmethyl)-1H-pyrrole-2-carboxamide]	1	2.4
<1%	> 25 µM	5.11 µM	8.61 µM	23.8 µM	17%	5.1 µM	4%	8.24 µM	<1%	–	CC(=O)N[C@H]1CC[C@H](/C=C/c2csc(NC(=O)c3cccn3Cc3ccncc3)n2)CC1 [Compound B17]	5	1.6
